# From patent publication US20210000953A1, “USE OF IMMUNE CHECKPOINT INHIBITORS IN CENTRAL NERVOUS SYSTEMS NEOPLASMS” (Bristol-Myers Squibb Company, priority 2014, published 2021)
# Assays:
# recurrent GBM = test: Study CA209143 safety lead-in cohorts (Cohort 1, 1b): investigator-assessed tumor response per RANO (brain MRI) and overall survival; format: in vivo, human
# Protocol: A randomized, open-label, multicenter, phase 3 study of nivolumab monotherapy versus bevacizumab and a safety study of nivolumab and nivolumab in combination with ipilimumab is conducted in adult (>18 years) subjects with a first recurrence of GBM after treatment with radiotherapy and temozolomide. Since the use of nivolumab and ipilimumab has not previously been studied in subjects with GBM, a safety lead-in (Cohort 1) consisting of approximately 10 subjects in each of two treatment arms are enrolled and randomized to treatment with either Arm N (nivolumab monotherapy) or Arm N+I (nivolumab combined with ipilimumab). Tolerability and safety of a treatment arm is determined after all subjects in the arm completed four doses or discontinued dosing prior to completing four doses. A safety evaluation of Cohort 1 is conducted for each arm based on criteria described herein.
# In order to better characterize preliminary safety and tolerability for the combination therapy, an additional, non-randomized safety cohort (Cohort 1b) to evaluate an alternate dosing regimen is initiated for the combination therapy (nivolumab 3 mg/kg+ipilimumab 1 mg/kg every 3 weeks for 4 cycles followed by nivolumab 3 mg/kg thereafter). Evaluation of the efficacy of nivolumab+ipilimumab combination therapy will be evaluated separately. Information from subjects treated with combination therapy in Cohort 1 and Cohort 1b will provide a basis for dose selection for future studies in subjects with GBM.
# All subjects received efficacy assessments with brain MRI with contrast on Day 1 Week 7, Day 1 Week 13, and then one time every 8 weeks (±1 week). MRIs occurred at ±7 days per scheduled visits. Investigators will obtain more frequent follow-up MRI scans as medically indicated.
# The primary efficacy measure of the study is overall survival (OS). OS is defined as the time between the date of randomization and the date of death due to any cause. OS is followed continuously while subjects are on study drug and every 3 months via in-person or phone contact during the survival follow-up phase of the study.
# Investigator-assessed tumor response is based upon published RANO criteria. Tumor assessments are performed as shown above in the imaging assessment for the study. Radiologic response was assessed by comparing the pretreatment baseline and on-treatment MRI scans. Radiologic progression was determined by using the smallest tumor measurement at either the pretreatment baseline or after initiation of study medication.
# A complete response required: complete disappearance of all enhancing measurable and nonmeasurable disease sustained for at least 4 weeks; no new lesions; stable or improved nonenhancing (T2/FLAIR) lesions; patients must be off corticosteroids (or on physiologic replacement doses only); and stable or improved clinically. Patients with nonmeasurable disease only cannot have a complete response; the best response possible is stable disease. […]
# PD-1 = target: T1, PD-1 (Homo sapiens, UniProt Q15116); test: PD-1 receptor occupancy in subjects dosed with nivolumab; format: in vivo; conditions: 15 subjects, 0.3 mg/kg to 10 mg/kg, across all doses
# T1 construct: Receptor-occupancy data from 15 subjects who received 0.3 mg/kg to 10 mg/kg dosing with nivolumab; endogenous in cells
# Protocol: When used in combinations with other anti-cancer agents, the dosage of an anti-PD-1 antibody can be lowered compared to the monotherapy dose. Dosages of nivolumab that are lower than the typical 3 mg/kg, but not less than 0.001 mg/kg, are subtherapeutic dosages. The subtherapeutic doses of an anti-PD-1 antibody used in the methods herein are higher than 0.001 mg/kg and lower than 3 mg/kg. In some embodiments, a subtherapeutic dose is about 0.001 mg/kg-about 1 mg/kg, about 0.01 mg/kg-about 1 mg/kg, about 0.1 mg/kg-about 1 mg/kg, or about 0.001 mg/kg-about 0.1 mg/kg body weight. In some embodiments, the subtherapeutic dose is at least about 0.001 mg/kg, at least about 0.005 mg/kg, at least about 0.01 mg/kg, at least about 0.05 mg/kg, at least about 0.1 mg/kg, at least about 0.5 mg/kg, or at least about 1.0 mg/kg body weight. Receptor-occupancy data from 15 subjects who received 0.3 mg/kg to 10 mg/kg dosing with nivolumab indicate that PD-1 occupancy appears to be dose-independent in this dose range. Across all doses, the mean occupancy rate was 85% (range, 70% to 97%), with a mean plateau occupancy of 72% (range, 59% to 81%). In some embodiments, 0.3 mg/kg dosing can allow for sufficient exposure to lead to maximal biologic activity.
# [1] = Phase 1 study of nivolumab; cited from earlier work
# [2] = exploratory analysis, Cohort 1, recurrent GBM, N = 10 per arm, same regimens
# [3] = investigator-assessed per RANO, Cohort 1, recurrent GBM, N = 10 per arm, nivolumab 3 mg/kg Q2W or nivolumab 1 mg/kg + ipilimumab 3 mg/kg Q3W x4 then nivolumab 3 mg/kg Q2W
# T1 sequence (Q15116 25-288): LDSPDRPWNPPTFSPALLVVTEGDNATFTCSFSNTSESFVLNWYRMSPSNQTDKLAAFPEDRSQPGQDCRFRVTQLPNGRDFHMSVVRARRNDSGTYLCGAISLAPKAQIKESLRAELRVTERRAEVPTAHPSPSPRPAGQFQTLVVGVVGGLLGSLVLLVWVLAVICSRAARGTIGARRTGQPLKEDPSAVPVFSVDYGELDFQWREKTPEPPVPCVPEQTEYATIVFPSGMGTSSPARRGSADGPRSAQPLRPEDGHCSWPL
substance,measurement,setting,value
nivolumab,Patients who experienced stable disease or better,"recurrent GBM; Cohort 1 nivolumab monotherapy 3 mg/kg, RANO",6/10
same,Time on treatment of the one patient still receiving nivolumab at cutoff,"recurrent GBM; Cohort 1 nivolumab monotherapy arm, cutoff Sep. 9, 2015",17.5 months
same,Brain MRI following three treatments,"recurrent GBM; case: Cohort 1 Arm N, nivolumab 3 mg/kg monotherapy",disease progression as per RANO
same,Response according to RANO criteria,"recurrent GBM; case: MGMT methylated, EGFRvIII positive GBM, nivolumab 3 mg/kg",partial response
same,Brain MRI four weeks after resection,recurrent GBM; case: nivolumab 3 mg/kg,did not show tumor growth
same,"Brain MRI on Aug. 28, 2014","recurrent GBM; case: nivolumab 3 mg/kg delayed, dexamethasone 4 mg BID",improvement with resolution of rim enhancement
same,"Death, time after randomization","recurrent GBM; case: nivolumab 3 mg/kg, treated 227 days",397 days
same,Karnofsky performance status at all subsequent visits,"recurrent GBM; case: nivolumab 3 mg/kg, 90 at baseline",90
same,Time to distant disease progression after resuming nivolumab following surgery,"recurrent GBM; case: nivolumab 3 mg/kg, hippocampus and right hypothalamus, proven on autopsy",4 months
same,"Overall survival: Median, months (95% CI)","recurrent GBM; exploratory analysis, Cohort 1, recurrent GBM, N = 10 per arm, nivolumab 3 mg/kg Q2W or nivolumab 1 mg/kg + ipilimumab 3 mg/kg Q3W x4 then nivolumab 3 mg/kg Q2W, NE: not estimated",10.5 (4.1-NE)^ months
same,Overall survival: 6-month rate (95% CI),recurrent GBM; [2],70.0% (32.9-89.2)
same,Overall survival: 9-month rate (95% CI),recurrent GBM; [2],60.0% (25.3-82.7)
same,Overall survival: 12-month rate (95% CI),recurrent GBM; [2],40.0% (12.3-67.0)
same,"Overall survival: Range, months",recurrent GBM; [2],4.1-17.6 months
same,Best overall response: Complete Response,recurrent GBM; [3],0 n (%)
same,Best overall response: Partial Response,recurrent GBM; [3],1 (10) n (%)
same,Best overall response: Progressive Disease,recurrent GBM; [3],3 (30) n (%)
same,Best overall response: Stable Disease,recurrent GBM; [3],5 (50) n (%)
same,Best overall response: Unable to Determine,recurrent GBM; [3],1 (10) n (%)
same,Mean plateau PD-1 occupancy,PD-1; range 59% to 81%,72%
same,Mean PD-1 occupancy rate,PD-1; range 70% to 97%,85%
same,Subjects with apparent progression of disease before objective response and/or stable disease,[1],approximately 10%
